Assays:
NCI-H292 cells = assay: AB-PAS staining of mucus glycoprotein in NCI-H292 cells; assay type: cell-based, human; conditions: FIG. 1 and 2
Method: (§1) NCI-H292 cells (human pulmonary mucoepidermoid tumor cell strain, purchased from ATCC) were suspended in 10% FCS (Fetal Calf Serum)-containing RPMI-1640 (produced by Gibco Corp.), sowed on a Lab-Tek 8 well chamber slide (produced by Nunc Corp.) in a density of 6.0×10^4 cells/cm^2, cultured for 72 hours, subjected to the replacement of the culture solution by RPMI-1640 containing 0.1% of BSA, and further cultured for 24 hours.
On the day of the treatment, the culture solution of each well was replaced by RPMI-1640 (containing 0.1% BSA) containing EGF (5 ng/mL, produced by Becton Dickinson Corp.), HB-EGF (5 ng/mL, produced by R & D Corp.), TGF-α (5 ng/mL, produced by Peprotech Corp.), or PBS to start the treatment. Then, the cells were incubated at 37° C. for 24 hours.
After the prescribed 24 hours treatment, the culture supernatant was removed. The residue was once washed with PBS, mixed with 4% paraformaldehyde/PBS, and then allowed to stand at room temperature for one hour to immobilize the cells. The immobilized cells were twice washed with Milli Q water and then stained with AB-PAS. The staining was carried out according to a book (“All of new dyeing methods” p136-150 (Iyaku Shuppansha)). After staining, the cells were sequentially immersed in 70, 80, and 100% ethanol for five minutes, respectively, to remove water, sealed in an Aquatex (produced by Merck Corp.), and then subjected to the observation of the staining image with an optical microscope. From the results, it was clarified that all of HAST, TGF-α, EGF, and HB-EGF promoted the production of the mucus glycoprotein.
as §1, with “(purchased” for “(human pulmonary mucoepidermoid tumor cell strain, purchased”, “FCS-containing” for “FCS (Fetal Calf Serum)-containing”, “hours. […]” for “hours.”

PAR-2 = target: T1, PAR-2 (Homo sapiens, UniProt P55085); assay: Calcium influx in PAR-2-expressing insect cells; assay type: cell-based; conditions: AST 2 units/mL; trypsin, thrombin 0.1 to 10 units/mL; SFLLRNamide, SLIGRL 10 to 100 μM
T1 construct: expressed in transfected cells; host or cells: Sf9 insect cells infected with recombinant baculovirus VL-PAR (pVL1393)
T1 sequence (P55085 26-397): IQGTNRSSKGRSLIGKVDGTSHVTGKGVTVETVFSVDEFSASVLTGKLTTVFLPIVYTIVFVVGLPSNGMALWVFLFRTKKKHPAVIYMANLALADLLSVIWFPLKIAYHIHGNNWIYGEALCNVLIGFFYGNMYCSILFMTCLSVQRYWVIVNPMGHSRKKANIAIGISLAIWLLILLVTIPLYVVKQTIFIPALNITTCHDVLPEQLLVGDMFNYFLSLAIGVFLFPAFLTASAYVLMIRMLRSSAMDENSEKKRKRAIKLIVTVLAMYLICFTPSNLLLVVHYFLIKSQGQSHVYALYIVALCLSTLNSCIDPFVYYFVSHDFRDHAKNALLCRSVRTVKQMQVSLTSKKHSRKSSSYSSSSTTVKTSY
Method: The above-obtained recombinant baculovirus VL-PAR for expressing the PAR was used to infect 1.0×10^7 Sf9 cells sowed on a 75 cm^2 flask at an MOI=2, and was then left and stationally cultured at 27° C. for 40 hours. After the culture, the infected cells were recovered and then subjected to a calcium influx experiment to-confirm the function of the PAR.
The recovered infected cells (about 5×10^6 cells) were once washed with HEPES-Tyrode buffer solution-Ca^2+ (−) pH 7.4, and then suspended in 5 mL of HEPES-Tyrode buffer solution (containing Fura2-AM, 1 μg/mL) to load the Fura2-AM on the cells at 27° C. for 30 minutes. The suspension was centrifuged at 800 rpm at room temperature for 5 minutes to recover the cells. The cells were twice washed with HEPES-Tyrode buffer solution-Ca^2+ (−) pH 7.4 and then resuspended in 5 mL of HEPES-Tyrode buffer solution-Ca^2+ (−) pH 7.4. The cell suspension was mixed with 5 μL of 1M CaCl2 to give a final concentration of 1 mM CaCl2, and then incubated in a shaded state at room temperature for 5 minutes. The prepared Fura2-AM-loaded infected cells were dispensed into a 96 well plate in a volume of 100 μL/well, further subjected to the dispensation of HEPES-Tyrode buffer solution-C^2+ (+) pH 7.4 in a volume of 80 μL/well, and then assayed with a Fluorescence Drug Screening System (made by Hamamatsu Photonics Co.). Namely, [intensity of 500 nm fluorescent light due to 340 nm exciting light]/[intensity of 500 nm fluorescent light due to 380 nm exciting light] (reflecting the concentration of calcium in the cells) was assayed.

Which “production of the mucus glycoprotein” value (NCI-H292 cells) does the source give for “HAST: human airway-specific trypsin-like enzyme; propeptide moiety bound to trypsin-like protein moiety via a disulfide bond” here?
Its value is “promoted”.

And the “Ca2+ influx” value (PAR-2)?
The value was “observed”.
